According to patent publication US20240002434A1, “METHODS OF INACTIVATING VIRAL CONTAMINANTS” (ICHNOS SCIENCES SA, priority 2017, published 2024):

Tested on: MLV
Test: VRV study on Arginine treatment of PA eluate
Assay type: cell-based, Murine Leukemia Virus
Procedure: Based on the stability and activity studies reported in Example 1, the most promising viral inactivation methods were further tested for their ability to inactivate viruses. The effectiveness of the viral inactivation was evaluated by doing a spiking study at Bioreliance. Test samples were taken before and after each treatment and analyzed for viral titre. First, VRV study on Arginine treatment was carried out.
Only one virus, MLV, which is a typical model virus used for biological products derived from CHO cell lines such as monoclonal antibody, was used for this study. A total of 7 runs were performed. PA eluate from development runs was used as starting material. Different stock buffers of Arginine at the different pH (pH 4.0, pH 4.75, pH 4.79 and pH 5.5) were used to reach the target pH and concentration. The samples were neutralized using 250 mM Histidine pH 12.0 buffer around pH 6.0 to stop the reaction.
Log reduction values was calculated with respect to the neutralized load sample, a 5 plate large volume plating as well as a standard titration was performed on the t=60 min sample. The neutralized load hold sample was held at 16.0° C. to 20.0° C. for 60 minutes (runs 2, 4 and 6) or 120 minutes (runs 1, 3, 5 and 7).

**Q.** Which results are given for N=C(N)NCCC[C@H](N)C(=O)O [Arginine]?
**A.** log10 reduction factor (Run 2, Arginine concentration (mM) 0.4, pH 4, 60 min): 4.16 +/− 0.32 log10; log10 reduction factor (Run 3, Arginine concentration (mM) 0.8, pH 4, 120 min): 4.10 +/− 0.35 log10; log10 reduction factor (Run 4, Arginine concentration (mM) 0.8, pH 4.75, 60 min): 2.82 +/− 0.4 log10; log10 reduction factor (Run 5, Arginine concentration (mM) 0.38, pH 4.79, 120 min): no reduction; log10 reduction factor (Run 6, Arginine concentration (mM) 0, pH 5.5, 60, 120 min): 0.35 +/− 0.4 log10; log10 reduction factor (Run 7, Arginine concentration (mM) 0.8, pH 5.5, 120 min): no reduction
